We go through 1 compound from patent US5612329A (priority 1995, dated 1997).

Common to all, as to assay type: cell-based
The subject of one assay is A549/ATCC cells. The assay can be described thus: In vitro cytotoxicity / cell growth inhibition, non-small cell lung cancer. The following applies: Homo sapiens, 48 hr, read-out: log10 G150 (converted). The procedure: (§1) The anti-proliferative activities of the aziridinylpolyamines obtained in Synthesis Examples 1-4 were assessed by determining log10 G150 values against human cancer cell lines using the screening strategy described by Boyd et al, Drug Devel. Res. 34:91-109 (1995).
(§2) More specifically, the compounds were tested at a minimum of five concentrations at 10-fold dilutions using a 48 hr continuous exposure protocol. Each cell line shown in Table 1 below was inoculated onto microtiter plates. After a pre-incubation period of 24-48 hr at 37° C., the test compounds were added, and the culture was incubated for an additional 48 hr at 37° C. Cell viability or cell growth end-point determinations were performed by fixation of the cells, followed by staining with sulforhodamine B (Monks et al, J. Natl. Cancer Inst., 83:757-766 (1991)).

In a further assay the test system is EKVX cells. The description is as above. To be noted: Homo sapiens, 48 hr, read-out: log10 G150 (converted). The procedure:
as §1, §2

The subject of a further assay is HOP-62 cells. The assay is described as above. To be noted: Homo sapiens; HOP-62, non-small cell lung cancer, 48 hr; read-out: log10 G150 (converted). The procedure: as §1, §2
Another assay has as its system HOP-92 cells. The assay is described as above. The following applies: Homo sapiens; HOP-92, non-small cell lung cancer, 48 hr; read-out: log10 G150 (converted). The protocol:
as §1, §2

A further assay deals with NCl-H226 cells. The description is as above. The following applies: Homo sapiens, 48 hr, read-out: log10 G150 (converted). The protocol:
as §1, §2

A further assay concerns NCl-H23 cells. The description is as above. The following applies: Homo sapiens, 48 hr, read-out: log10 G150 (converted). The protocol:
as §1, §2

Another assay relates to NCl-H322M cells. Described as above. The following applies: Homo sapiens, 48 hr, read-out: log10 G150 (converted). The procedure:
as §1, §2

For the next assay, the system named is NCl-H460 cells. The description is as above. To be noted: Homo sapiens, 48 hr, read-out: log10 G150 (converted). The procedure:
as §1, §2

The next assay has as its system NCl-H522 cells. The assay is described as above. To be noted: Homo sapiens, 48 hr, read-out: log10 G150 (converted). The procedure:
as §1, §2

The test system of a further assay is COLO 205 cells. Nature of the assay: In vitro cytotoxicity / cell growth inhibition, colon cancer. The following applies: Homo sapiens; COLO 205, colon cancer, 48 hr; read-out: log10 G150 (converted). The protocol: as §1, §2
A further assay deals with HCC-2998 cells. The description is as above. To be noted: Homo sapiens; HCC-2998, colon cancer, 48 hr; read-out: log10 G150 (converted). The protocol:
as §1, §2

The next assay deals with HCT-116 cells. Described as above. To be noted: Homo sapiens; HCT-116, colon cancer, 48 hr; read-out: log10 G150 (converted). The procedure: as §1, §2
A further assay has as its system HCT-15 cells. The assay is described as above. The following applies: Homo sapiens; HCT-15, colon cancer, 48 hr; read-out: log10 G150 (converted). The procedure:
as §1, §2

The test system of another assay is HT29 cells. Described as above. The following applies: Homo sapiens, HT-29, 48 hr, read-out: log10 G150 (converted). The protocol: as §1, §2
In another assay the test system is KM12 cells. The assay is described as above. To be noted: Homo sapiens, 48 hr, read-out: log10 G150 (converted). The procedure:
as §1, §2

Another assay relates to SW-620 cells. The description is as above. The following applies: Homo sapiens; SW-620, colon cancer, 48 hr; read-out: log10 G150 (converted). The protocol: as §1, §2
Another assay has as its system SF-268 cells. The assay can be described thus: In vitro cytotoxicity / cell growth inhibition, CNS cancer. The following applies: Homo sapiens; SF-268, CNS cancer, 48 hr; read-out: log10 G150 (converted). The procedure:
as §1, §2

The next assay has as its system SF-295 cells. The description is as above. To be noted: Homo sapiens; SF-295, CNS cancer, 48 hr; read-out: log10 G150 (converted). The protocol:
as §1, §2

The next assay deals with SNB-19 cells. Described as above. To be noted: Homo sapiens; SNB-19, CNS cancer, 48 hr; read-out: log10 G150 (converted). The protocol:
as §1, §2

A further assay has as its system SNB-75 cells. The assay is described as above. The following applies: Homo sapiens; SNB-75, CNS cancer, 48 hr; read-out: log10 G150 (converted). The procedure:
as §1, §2

A further assay concerns U251 cells. The description is as above. To be noted: Homo sapiens, U-251, 48 hr, read-out: log10 G150 (converted). The protocol: as §1, §2

Regarding `C(CCNCCCN1CC1)CNCCCN1CC1` [Synthesis Example 1, 1,12-Diaziridinyl-4,9-diazadodecane], the GI50 in the assay with A549/ATCC cells is 891 nM; with EKVX cells it was 3470 nM; in the assay with HOP-62 cells it was 58.9 nM; with HOP-92 cells it was 219 nM; with NCl-H226 cells, 724 nM; with NCl-H23 cells it was 263 nM. The GI50 in the assay on NCl-H322M cells was 4570 nM; in the assay on NCl-H460 cells, 363 nM; with NCl-H522 cells, 427 nM; with COLO 205 cells, 407 nM; in the assay on HCC-2998 cells, 1820 nM; with HCT-116 cells, 1260 nM. For the same compound, the GI50 is 11500 nM in the assay on HCT-15 cells; 3630 nM in the assay on HT29 cells; 15500 nM in the assay on KM12 cells; 2630 nM with SW-620 cells; 148 nM in the assay with SF-268 cells; 155 nM with SF-295 cells. Further, the GI50 was 1120 nM with SNB-19 cells, 27.5 nM in the assay on SNB-75 cells and 417 nM in the assay on U251 cells.
